Experimental data: PMC12884772, “Macrophagic Sclerostin Loop2‐ApoER2 Interaction Required by Sclerostin for Cardiovascular Protective Action” (Advanced Science, 2025)

Experiments:
[1] = system: human differentiated macrophages (THP‐1); experiment: LPS‐induced inflammatory responses in human differentiated macrophages (THP‐1), siNC or siLrp8; format: cell-based
Method: To determine whether the suppressive effects of sclerostin on inflammatory responses in macrophages were dependent on ApoER2 in vitro, PMA (100 ng/mL, 48 h)‐induced human differentiated macrophages (THP‐1 cells, Procell Life Science & Technology, CL‐0233) and mouse macrophages (RAW 264.7 cells, ATCC, TIB‐71) were utilized. Human differentiated macrophages or mouse macrophages were divided into 9 groups (n = 3 per group), respectively, including (1) siNC, (2) siNC + LPS, (3) siNC + LPS + SOST 500 nM or 250 nM, (4) siNC + LPS + SOST 1 µM or 500 nM, (5) siNC + LPS + SOST 2 µM or 1 µM, (6) siLrp8 + LPS + SOST 500 nM or 250 nM, (7) siLrp8 + LPS + SOST 1µM or 500 nM, (8) siLrp8 + LPS + SOST 2 µM or 1 µM, (9) siLrp8 + LPS. Cells in groups (6‐9) were transfected with siRNA targeting human/mouse Lrp8 (human siLrp8: Santa Cruz Biotechnology sc‐40097, mouse siLrp8: Santa Cruz Biotechnology sc‐40098), while cells in groups (1‐5) were transfected with empty vector as control (siNC). 24 h later, cells in group (3)/(6), (4)/(7), and (5)/(8) were treated with recombinant human or mouse sclerostin for 3 h at concentration of 500 nM or 250 nM, 1 µM or 500 nM, as well as 2 µM or 1 µM, respectively, while cells in groups (1), (2), and (9) were treated with vehicle. Then, cells in groups (2‐9) were treated with LPS (100 ng/mL or 1 µg/mL) for 18 h. All groups of cell lysates were collected for determining the mRNA expression levels of TNF‐α, MCP‐1, and IL‐10 (human or mouse, respectively) by RT‐PCR.^[ [34] ^] Cell mediums were collected for determining the protein expression/secretion levels of TNF‐α, MCP‐1, and IL‐10 (human or mouse, respectively) by ELISA.^[ [34] ^]
Total RNA was extracted from cells following the protocols of Trizol reagent (Invitrogen, 15 596 026). […] The relative gene expression levels were calculated using the 2^−ΔΔCt method with GAPDH as the reference gene.^[ [40] ^] […]

ApoER2 = molecular target: T1, ApoER2 (Mus musculus, UniProt Q924X6); experiment: Confocal microscopy of cell surface binding of sclerostin to ApoER2; format: cell-based; settings: GFP‐ApoER2 overexpressed RAW 264.7, sclerostin 1 µM for 12 h; Figure 6C
T1 construct: FLAG; expressed in transfected cells; host or cells: RAW264.7
T1 sequence (Q924X6 29-996): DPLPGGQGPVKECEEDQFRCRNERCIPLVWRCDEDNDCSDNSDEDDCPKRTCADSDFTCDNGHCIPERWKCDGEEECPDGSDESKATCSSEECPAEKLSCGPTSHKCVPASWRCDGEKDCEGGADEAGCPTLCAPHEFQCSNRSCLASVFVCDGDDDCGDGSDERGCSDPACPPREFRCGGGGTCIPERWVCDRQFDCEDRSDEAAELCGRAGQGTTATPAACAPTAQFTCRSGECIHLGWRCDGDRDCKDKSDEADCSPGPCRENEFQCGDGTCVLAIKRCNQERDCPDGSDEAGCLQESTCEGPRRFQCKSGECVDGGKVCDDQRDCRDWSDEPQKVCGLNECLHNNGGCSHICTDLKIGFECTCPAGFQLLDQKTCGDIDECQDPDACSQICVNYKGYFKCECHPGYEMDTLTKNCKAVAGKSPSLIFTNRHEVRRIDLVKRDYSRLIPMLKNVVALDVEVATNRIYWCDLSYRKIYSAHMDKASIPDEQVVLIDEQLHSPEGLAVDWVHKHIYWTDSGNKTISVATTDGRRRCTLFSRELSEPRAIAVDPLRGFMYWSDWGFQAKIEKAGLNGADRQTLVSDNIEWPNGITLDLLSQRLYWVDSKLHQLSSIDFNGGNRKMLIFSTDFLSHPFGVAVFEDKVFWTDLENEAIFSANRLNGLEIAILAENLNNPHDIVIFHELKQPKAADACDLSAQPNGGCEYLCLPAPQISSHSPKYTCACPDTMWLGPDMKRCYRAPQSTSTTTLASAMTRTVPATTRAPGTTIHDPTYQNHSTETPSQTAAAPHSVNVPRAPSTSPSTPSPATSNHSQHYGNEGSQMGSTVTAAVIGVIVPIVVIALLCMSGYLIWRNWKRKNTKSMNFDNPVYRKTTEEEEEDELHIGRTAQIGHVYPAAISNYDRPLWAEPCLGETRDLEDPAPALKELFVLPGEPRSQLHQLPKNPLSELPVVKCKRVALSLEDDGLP
Method: The interaction of full‐length (FL)/truncated ApoER2 with full‐length (FL) /truncated sclerostin in macrophages (RAW264.7) were determined by pull‐down assay and Co‐IP assay. The binding affinity of ApoER2 to FL sclerostin and sclerostin loop2 were determined by biolayer interferometry (BLI) analysis. Moreover, the binding of sclerostin to ApoER2 on macrophages (RAW264.7) was examined by confocal microscopy.
GFP‐ApoER2 overexpressed RAW 264.7 cells and GFP‐vector overexpressed RAW 264.7 cells were plated in laser confocal dishes (80 000 cells per well) 12 h before the experiment. The recombinant sclerostin was added to make its final concentration 1 µM for 12 h. Cells were washed three times with PBS and then fixed with 4% paraformaldehyde (PFA) in PBS for 15 min, washed three times, blocked in 10% goat serum for 1 h at room temperature and incubated with anti‐sclerostin primary antibody (Thermo, PA5‐113315, 1:100) overnight at 4 °C. Thereafter, cells were washed with PBS three times, then incubated with goat anti‐rabbit IgG H&L (Alexa Fluor 594, 1:200) for 2 h at 37 °C. Hoechst was used to stain the cell nuclei. The fluorescent images were obtained by a confocal microscope (Leica, STELLARIS STED) equipped with a 405 nm laser, a 488 nm laser, and a 594 nm laser.^[ [67] ^]

[2] = THP‐1, LPS 100 ng/mL 18 h, recombinant human sclerostin 500 nM-2 µM for 3 h, RT‐PCR and ELISA, n = 3

In the case of “sclerostin: recombinant human/mouse full‐length sclerostin protein”, the “mRNA expression and protein expression/secretion of IL‐10” value [1, 2] is reported as “promoted”, the “mRNA expression and protein expression/secretion of TNF‐α and MCP‐1” value [1, 2] is reported as “inhibited” and the “Effects of sclerostin on cytokine/chemokine expression/secretion upon Lrp8 silencing” value ([1]; THP‐1 with siLrp8, LPS 100 ng/mL 18 h) is reported as “not detected”. The “Cell surface binding of sclerostin to ApoER2” value (ApoER2) was “observed”.
